From patent publication US4835162A (priority 1987, dated 1989)
“Also recorded” adds a separate entry of the source. Like-named read-outs stand apart in the source and are kept apart here.

Tests used:
[1] = system: rats; conditions: rat, in vivo
[2] = system: rats; parameters: species or system Sprague-Dawley male rats; Blockade of (nicotine-induced prostration) EC50: unit not given here; conditions: rat, in vivo
[3] = molecular target: nicotinic receptors (rat brain membranes); conditions: read-out: 3H-MCC Binding IC50
[4] = molecular target: nicotinic receptors (rat brain membranes); type: binding; conditions: read-out: 3H-Nicotine Binding IC50
[5] = system: rats; conditions: rat, in vivo; remark: listed apart in the source
[6] = system: rats; experiment: animal or person; conditions: Rattus norvegicus, iv, read-out: Antagonistic dose needed to completely block elevation in systolic blood pressure
[7] = molecular target: nicotinic receptors (rat brain membranes); type: binding; conditions: for IC50: pH 7, read-out: [3H]-nicotine IC50; for Kd: read-out: Kd value in competition binding
[8] = molecular target: nicotinic receptors (rat brain membranes); type: binding; conditions: for IC50: pH 7, read-out: [3H]-MCC IC50
[9] = system: rats; experiment: animal or person; conditions: Rattus norvegicus, ip, 7 min, read-out: % Antagonism (seizures)
[10] = system: rats; conditions: rat, in vivo; remark: listed apart in the source
[11] = system: nicotinic receptors (rat brain membranes); type: binding
[12] = system: rats; conditions: rat, in vivo; remark: listed apart in the source

CN(C)c1cccnc1 [3-dimethylaminopyridine]
agonist or inactive on prostration, in words [1]: agonists

Nc1c2c(nc3ccccc13)CCCC2 [9-aminotetrahydroacridine, reference compound]
Blockade of (nicotine-induced prostration) EC50 [2]: 200

CC(=O)OCCN(C)C [DMAE acetate]
Prostration EC50 [1]: > 1000
IC50 ([3]; pH 7.5): 50000 nM
IC50 ([4]; pH 7.5): 50000 nM

CN(C)CCOC(=O)c1ccccc1 [DMAE benzoate, dimethylaminoethyl benzoate]
% Antagonism (seizures) [5]: 45%
Seizures [5]: 5/9
ED100 [6]: 10 ± 25 mg/kg
Blockade of (nicotine-induced prostration) EC50 [2]: 100

CN(C)CCOC(N)=O [DMAE carbamate]
Prostration EC50 [1]: 400
behavioral effect, in words [1]: only a similar effect
IC50 ([3]; pH 7.5): 10000 nM
IC50 [7]: 10000 nM
IC50 [8]: 10000 nM
IC50 ([4]; pH 7.5): 10000 nM

CN(C)CCOC(=O)C1CCCCC1 [DMAE cyclohexylcarboxylate, dimethylaminoethyl cyclohexylcarboxylate]
% Antagonism (seizures) [5]: 50%
Seizures [5]: 4/8
seizures, in words [5]: about half of the rats exhibited seizures
IC50 [3]: 4000 nM
Blockade of (nicotine-induced prostration) EC50 [2]: 100
IC50 [4]: 2000 nM

CNC(=O)OCCN(C)C [DMAE methylcarbamate, dimethylaminoethylmethylcarbamate]
Prostration EC50 [1]: 300
behavioral effect, in words [1]: moderate weakness in the hindlimbs and head
IC50 ([3]; pH 7.5): 800 nM
IC50 [7]: 500 nM
IC50 [8]: 800 nM
IC50 ([4]; pH 7.5): 500 nM

CN(C)CCOC(=O)c1cccnc1 [DMAE nicotinate]
IC50 [3]: 200 nM
Blockade of (nicotine-induced prostration) EC50 [2]: 50
blockade of nicotine-induced prostration / antagonism, in words [2]: next in effectiveness and of comparable activity; also recorded: antagonistic to the nicotine-induced prostration
IC50 [4]: 200 nM

CN(C)CCOC(=O)Nc1ccccc1 [DMAE phenylcarbamate]
IC50 [3]: 100000 nM
IC50 [4]: 100000 nM

CN(C)CCOC(=S)Nc1ccccc1 [DMAE phenylthiocarbamate]
IC50 [3]: 20000 nM
IC50 [4]: 70000 nM

CN(C)CCOC(=O)CCC(=O)OCCN(C)C [DMAE succinate]
Prostration EC50 [1]: 1000
IC50 ([3]; pH 7.5): 60000 nM
IC50 ([4]; pH 7.5): 50000 nM

CNC(=O)OCCCN(C)C [DMAP methylcarbamate]
Prostration EC50 [1]: 100
IC50 ([3]; pH 7.5): 50 nM
IC50 ([4]; pH 7.5): 200 nM

CCN1CCCC1c1cccnc1 (stereo not drawn) [N'--ethyl nornicotine, reference compound]
Prostration EC50 [1]: 20
IC50 ([3]; pH 7.5): 100 nM
decrease in affinity relative to nicotine [7]: 3 fold
IC50 [7]: 30 nM
IC50 [8]: 100 nM
IC50 ([4]; pH 7.5): 30 nM

CCCN1CCCC1c1cccnc1 (stereo not drawn) [N'--propyl nornicotine, reference compound]
Prostration EC50 [1]: 80
IC50 ([3]; pH 7.5): 1000 nM
decrease in affinity relative to nicotine [7]: 200 fold
IC50 [7]: 600 nM
IC50 [8]: 1000 nM
IC50 ([4]; pH 7.5): 600 nM

CNC(=O)OC1CCN(Cc2ccccc2)CC1 [N--benzyl-4-piperdyl methylcarbamate]
IC50 [3]: > 100000 nM
IC50 [4]: > 100000 nM

CN1CCCC(OC(=O)c2ccccc2)C1 (stereo not drawn) [N--methyl-3-piperdyl benzoate]
IC50 [3]: 20000 nM
Blockade of (nicotine-induced prostration) EC50 [2]: 300
IC50 [4]: 30000 nM

COc1ccc(CC2c3cc(OC)c(OC)cc3CCN2C)cc1OC (stereo not drawn) [N--methyltetrahydro papavarine, reference compound]
IC50 [3]: 80000 nM
IC50 [4]: 70000 nM

C[N+](C)(C)CCOC(=O)C1CCCCC1 [TMAE cyclohexylcarboxylate, choline ester of cyclohexylcarboxylic acid]
responders at 25 mg/kg [9]: 78%
Seizures [5]: 1/8
blockade of seizure activity [5]: 78%
IC50 [3]: 50 nM
Blockade of (nicotine-induced prostration) EC50 [2]: 10
IC50 [4]: 80 nM
% Antagonism (protection against nicotine mortality) [10]: 66%

C[N+](C)(C)CCOC(=O)Cc1ccccc1 [TMAE phenylacetate]
IC50 [3]: 300 nM
Blockade of (nicotine-induced prostration) EC50 [2]: 100
blockade of nicotine-induced prostration / antagonism, in words [2]: next in effectiveness and of comparable activity
IC50 [4]: 2000 nM

C[N+](C)(C)CCOC(=S)Nc1ccccc1 [TMAE phenylthiocarbamate]
ED100 [6]: 4 ± 0.8 mg/kg
IC50 [3]: 500 nM
Blockade of (nicotine-induced prostration) EC50 [2]: 50
blockade of nicotine-induced prostration / antagonism, in words [2]: next in effectiveness and of comparable activity
IC50 [4]: 500 nM
% Antagonism (protection against nicotine mortality) [10]: 63%
Mortality [10]: 3/10

C[N+](C)(C)CCOC(=O)CCC(=O)OCC[N+](C)(C)C [TMAE succinate, succinylcholine]
Prostration EC50 [1]: 50

[3H]C([3H])([3H])[N+](C)(C)CCOC(=O)NC [[^3 H]-MCC, [^3 H]-methylcarbamyl choline]
displaceability of [3H]-MCC binding by muscarinic antagonists [8]: not [^3 H]-MCC binding, is displaceable by low concentrations of muscarinic antagonists; also recorded: not displaceable by muscarinic cholinergic antagonists
Bmax of [3H]-MCC binding [11]: 4.0×10^-14 moles/mg protein
Scatchard Kd and Bmax with unlabeled (-)-nicotine replacing MCC, in words [11]: comparable Kd and Bmax values
rate constant for association, [3H]-MCC ([11]; brain membranes, pH 7): 300000 M⁻¹ s⁻¹
rate constant for dissociation, [3H]-MCC ([11]; brain membranes, pH 7): 0.001 s⁻¹
Kd ([11]; read-out: Kd (Hill binding constant) of [3H]-MCC): 0.9 nM
Kd ([11]; read-out: Kd from rate constants, [3H]-MCC): 3.3 nM
Kd ([11]; read-out: Kd, Scatchard analysis of [3H]-MCC binding): 1.1 nM

CC(=O)OCC[N+](C)(C)C [acetylcholine]
Prostration EC50 [1]: 300
psychotropic action (prostration), in words [12]: inactive

CN1[C@@H]2CC[C@H]1C[C@@H](OC(=O)C(CO)c1ccccc1)C2 (stereo partly drawn) [atropine, reference compound]
responders at 25 mg/kg [9]: 0%
Seizures [5]: 6/6
blockade of nicotine-induced prostration / antagonism, in words [2]: inactive
protection against nicotine mortality, in words [10]: ineffective

C[N+](C)(C)CCOC(N)=O [carbamylcholine]
Prostration EC50 [1]: 100

O=c1cccc2n1C[C@@H]1CNC[C@H]2C1 [cytisine, reference compound]
Prostration EC50 [1]: 2
IC50 ([3]; pH 7.5): 0.1 nM
IC50 ([4]; pH 7.5): 6 nM

C[N+](C)(C)CCCCCC[N+](C)(C)C [hexamethonium]
IC50 [7]: > 100000 nM
Kd [7]: > 100000 nM

CCN(CC)CC(=O)Nc1c(C)cccc1C [lidocaine, reference compound]
blockade of nicotine-induced prostration / antagonism, in words [2]: inactive

CN1C(CC(O)c2ccccc2)CCCC1CC(O)c1ccccc1 (stereo not drawn) [lobelanidine, reference compound]
IC50 [3]: 5 nM
Blockade of (nicotine-induced prostration) EC50 [2]: 25
IC50 [4]: 20 nM

CN1[C@@H](CC(=O)c2ccccc2)CCC[C@H]1CC(=O)c1ccccc1 [lobelanine, reference compound]
IC50 [3]: 5 nM
Blockade of (nicotine-induced prostration) EC50 [2]: 25
IC50 [4]: 10 nM

CNC(=O)Oc1ccc2c(c1)[C@]1(C)CCN(C)[C@@H]1N2C [physostigmin, reference compound]
blockade of nicotine-induced prostration / antagonism, in words [2]: inactive

CCN(CC)CCOC(=O)c1ccc(N)cc1 [procaine, reference compound]
blockade of nicotine-induced prostration / antagonism, in words [2]: effectively block nicotine-induced prostration; also recorded: antagonists

CN(C)C(=O)Oc1cccc([N+](C)(C)C)c1 [prostigmin, reference compound]
blockade of nicotine-induced prostration / antagonism, in words [2]: inactive

N--benzylpiperidyl-methylcarbamate
IC50 [3]: > 100000 nM
IC50 [4]: > 100000 nM

α-bungarotoxin
IC50 [7]: > 100000 nM
Kd [7]: > 100000 nM
IC50 [8]: > 100000 nM
